Source: patent publication US6815439B2, “Substituted aza-oxindole derivatives” (SmithKline Beecham Corporation, priority 1999, dated 2004)

Tests used:
Type in all cases: biochemical
CDK2 = CDK2 (Homo sapiens, UniProt P24941); assay: CDK2 substrate phosphorylation assay; details: kinase inhibition, Table 3
Protocol: Cyclin dependent protein kinase assays utilized the peptides Biotin-aminohexyl-[…] and Biotin-aminohexyl-[…]-NH2 as phosphoryl group acceptors. CDK2 was expressed utilizing a baculovirus expression system and was partially purified to comprise 20-80% of total protein, with no detectable competing reactions present. Typically, assays were performed by incubating enzyme (0.2-10 nM), with and without inhibitor, one of the two peptide substrates ([…]), [γ-^32P]ATP ([…]), and 10-20 mM Mg^2+ for periods of time generally within the range 10-120 min. Reactions were terminated with 0.2-2 volumes of either 20% acetic acid or 50-100 mM EDTA buffered to pH 7 (substrate consumption <20%). The buffer employed in enzyme assays was either 30 mM HEPES 7.4 containing 0.15 M NaCl and 5% DMSO, the buffer 50 mM MOPS 7.0 containing 0.15 M NaCl and 5% DMSO, or the buffer 100 mM HEPES pH 7.5 containing 0.1 mg/mL BSA and 5% DMSO. Inhibitors were diluted in 100% DMSO prior to addition into the assay. Detection of peptide phosphorylation was accomplished by scintillation counting following either collection of peptide onto phosphocellulose filters (for reactions stopped with acetic acid), collection of peptide in wells of 96 well plates coated with Streptavidin (Pierce) (reactions were stopped with EDTA), or addition of Avidin coated Scintillant impregnated beads (Scintillation Proximity Assays from Amersham; reactions were stopped with EDTA).

c-fms = target: T1, c-fms (Homo sapiens, UniProt P07333); assay: c-fms protein kinase assay; details: kinase inhibition, Table 3
T1 construct: The c-fms intracellular domain was expressed from a baculovirus expression system; GST (N); made in house
T1 sequence (P07333 539-972 limits assumed): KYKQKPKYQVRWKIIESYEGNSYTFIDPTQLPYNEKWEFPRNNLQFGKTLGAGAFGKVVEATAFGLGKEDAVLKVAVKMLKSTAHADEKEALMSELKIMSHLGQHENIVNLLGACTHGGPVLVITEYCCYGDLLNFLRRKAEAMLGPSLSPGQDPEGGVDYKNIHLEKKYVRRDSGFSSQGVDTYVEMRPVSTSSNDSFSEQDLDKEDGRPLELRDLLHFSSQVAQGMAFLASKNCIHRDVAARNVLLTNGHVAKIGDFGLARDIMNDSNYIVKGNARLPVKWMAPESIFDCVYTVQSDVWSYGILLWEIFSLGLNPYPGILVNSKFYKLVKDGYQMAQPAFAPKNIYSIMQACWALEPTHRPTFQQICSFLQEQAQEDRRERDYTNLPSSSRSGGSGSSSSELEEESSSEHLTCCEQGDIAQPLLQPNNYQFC
Protocol: c-fms protein kinase assays utilized the peptide substrate, biotin-[…]-NH2 as the phosphoryl group acceptor. The c-fms intracellular domain was expressed from a baculovirus expression system, as an amino-terminal GST fusion protein, and purified to homogeneity using Glutathione agarose from Sigma Chemical Co. Maximum activation of the enzyme was achieved by preactivation at room temperature for 120 min in the presence of 100 μM ATP and 15 mM MgCl2, This enzyme stock was diluted to 150 nM prior to using in the assay. Typically assays were performed in white, opaque, 96-well plates in a 45 ul assay volume including 15 ul 6% DMSO, with or without compounds, 15 ul of the preactivated, diluted enzyme, and 15 ul of a substrate mixture. Reactions contained 50 mM HEPES, pH 7.5, 1.7 μM ATP, 15 mM MgCl2, 3 μM peptide, 2.5 mM DTT, 50 mM NaCl and 0.15 uCi/assay [□□^32P]ATP. The controls were reactions in the presence (negative controls) or absence (positive controls) of 50 mM EDTA. Reactions were allowed to proceed for 90 min at room temperature. The reaction products were quantified using Scintillation Proximity technolgy. The reactions were quenched by the addition of 200 ul of a solution containing 0.3 mg streptavidin SPA beads from Amersham, 50 mM EDTA, 0.1% TX-100, 50 uM ATP, in PBS, pH7.2 (phosphate buffered solution). Plates were sealed and counted in a Packard Topcount scintillation counter. IC50 values were obtained by fitting raw data to the equation y=Vmax*(1−(x/(k+x))).

VEGFR-2 = target: T2, VEGFR-2 (Homo sapiens, UniProt P35968); assay: VEGFR-2 kinase assay; details: kinase inhibition, Table 3; read-out: VEGFR2 (IC50)
T2 construct: The kinase domain of the enzyme was purified to homogeneity from a baculovirus expression system; made in house
T2 sequence (P35968 834-1162 limits assumed, species assumed): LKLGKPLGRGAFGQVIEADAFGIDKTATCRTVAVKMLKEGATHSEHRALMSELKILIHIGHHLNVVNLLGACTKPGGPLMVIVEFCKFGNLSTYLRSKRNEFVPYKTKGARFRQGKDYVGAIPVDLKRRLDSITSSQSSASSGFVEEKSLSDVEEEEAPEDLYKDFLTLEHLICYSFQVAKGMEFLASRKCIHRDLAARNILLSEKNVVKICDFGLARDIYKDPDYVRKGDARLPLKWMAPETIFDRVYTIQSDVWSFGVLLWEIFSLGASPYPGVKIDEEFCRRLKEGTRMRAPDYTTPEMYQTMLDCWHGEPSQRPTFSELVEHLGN
Protocol: The peptide substrate used in the VEGFR-2 assay was biotin-aminohexyl-[…]-NH2. The kinase domain of the enzyme was purified to homogeneity from a baculovirus expression system. The enzyme was preactivated on ice for 15 min in the presence of 100 μM ATP and 20 mM MgCl2, and stored at −80° C. until needed for assay. The activated enzyme was diluted to 0.4 nM into a 60 μl reaction containing 100 mM HEPES, pH 7.5, 5 μM ATP, 10 mM MgCl2, 5 μM peptide, 0.1 mM DTT, 0.05 mg/ml BSA, and an inhibitor at varying concentrations. The controls were reactions in the presence (negative controls) or absence (positive controls) of 50 mM EDTA. Reactions were incubated for 30 min at room temperature, and then quenched by the addition of EDTA to 60 mM in 210 μl. The quenched samples (190 μl) were transferred to a neutravidin-coated plate (Pierce) and incubated at room temperature for 40 min to allow biotinylated peptide to bind to the neutravidin. The unbound components of the reaction were removed by washing with a plate washer, then 200 μl HRP-PY20 anti-phosphotyrosine antibody conjugate was added to each well. After incubation for 40 min, the plate was washed to remove any unbound anitbody. A HRP substrate, K-blue (Neogen) was added and the reaction was quenched with Red Stop (Neogen) after 20 min. The absorbance of the wells was read at A650 in a plate reader. IC50 values were obtained by fitting raw data to A650=VMAX*(1−[I]/IC50+[I])))+b, where b is background.

IC50 (CDK2) [µM]	IC50 (c-fms) [µM]	IC50 (VEGFR-2) [µM]	Compound
0.01 to 0.1	1 to 10	0.01 to 0.1	CCOC(=O)c1cnc2c(c1)C(=CNc1ccc3cn[nH]c3c1)C(=O)N2 [Example 24, Ethyl 3-[(1H-indazol-6-ylamino)methylidene]-2-oxo-1,2-dihydro-3H-pyrrolo[2,3-b]pyridine-5-carboxylate]
0.1 to 1	1 to 10	1 to 10	O=C1Nc2ncc(-c3ccsc3)cc2C1=CNc1ccc2cn[nH]c2c1 [Example 15, 3-[(1H-Indazol-6-ylamino)methylidene]-5-(3-thienyl)-1,3-dihydro-2H-pyrrolo[2,3-b]pyridin-2-one]
